Earlier results on one substance are cited in patent publication US20250295727A1, “STABLE, READY-TO-ADMINISTER AQUEOUS FORMULATIONS OF DALBAVANCIN” (HIKMA PHARMACEUTICALS USA INC., priority 2022, published 2025).

For the data set the following is noted: lyophilized.
The mark [1] stands for this setting: storage at 25° C. for 12 months.

For the substance “dalbavancin [unformulated lyophilized dalbavancin]”, under setting [1], the “decrease of B0” value is 8.5% and the “increase of MAG” value is reported as 10.2%. Besides, under “storage for 36 months at 5° C.”, the “decrease in dalbavancin's primary factor B0” value was 3.6% and the “increase in MAG” value is listed as 2.9%.
